Structure (SMILES)	melting point [°C]
CCOCc1nc2c(N)nc3ccccc3c2n1CCCCC(N)=O [Example 49, 5-[4-Amino-2-(ethoxymethyl)-1H-imidazo[4,5-c]quinolin-1-yl]pentanamide]	198 to 200
CCCc1nc2c(N)nc3ccccc3c2n1CCC(=O)N(C)C [Example 51, 3-(4-Amino-2-propyl-1H-imidazo[4,5-c]quinolin-1-yl)-N,N-dimethylpropanamide]	207 to 209
CCCCc1nc2c(N)nc3ccccc3c2n1CCCCC(N)=O [Example 52, 5-(4-Amino-2-butyl-1H-imidazo[4,5-c]quinolin-1-yl)pentanamide]	219 to 221
CCCc1nc2c(N)nc3cccnc3c2n1CCCCCC(N)=O [Example 54, 6-(4-Amino-2-propyl-1H-imidazo[4,5-c][1,5]naphthyridin-1-yl)hexanamide]	216.5 to 217.5
CCc1nc2c(N)nc3cccnc3c2n1CCCCCC(N)=O [Example 56, 6-(4-Amino-2-ethyl-1H-imidazo[4,5-c][1,5]naphthyridin-1-yl)hexanamide]	220 to 221
CCOCc1nc2c(N)nc3cccnc3c2n1CCCCCC(N)=O [Example 58, 6-[4-Amino-2-(ethoxymethyl)-1H-imidazo[4,5-c][1,5]naphthyridin-1-yl]hexanamide]	215 to 217
CCCc1nc2c(N)nc3ccccc3c2n1CC(N)=O [Example 59, 2-(4-Amino-2-propyl-1H-imidazo[4,5-c]quinolin-1-yl)acetamide]	> 300
CCc1nc2c(N)nc3ccccc3c2n1CC(C)(C)C(N)=O [Example 60, 3-(4-Amino-2-ethyl-1H-imidazo[4,5-c]quinolin-1-yl)-2,2-dimethylpropanamide]	279 to 281
Cc1nc2c(N)nc3ccccc3c2n1CC(C)(C)C(N)=O [Example 61, 3-(4-Amino-2-methyl-1H-imidazo[4,5-c]quinolin-1-yl)-2,2-dimethylpropanamide]	284 to 287
CCCCc1nc2c(N)nc3ccccc3c2n1CC(C)(C)C(N)=O [Example 63, 3-(4-Amino-2-butyl-1H-imidazo[4,5-c]quinolin-1-yl)-2,2-dimethylpropanamide]	231 to 233
CCOCc1nc2c(N)nc3ccccc3c2n1CC1(C(N)=O)CC1 [Example 64, 1-{[4-Amino-2-(ethoxymethyl)-1H-imidazo[4,5-c]quinolin-1-yl]methyl}cyclopropanecarboxamide]	230.5 to 232.5
CCCc1nc2c(N)nc3ccccc3c2n1CC1(C(N)=O)CCC1 [Example 65, 1-[(4-Amino-2-propyl-1H-imidazo[4,5-c]quinolin-1-yl)methyl]cyclobutanecarboxamide]	234 to 237
CCc1nc2c(N)nc3ccccc3c2n1CC1(C(N)=O)CCC1 [Example 66, 1-[(4-Amino-2-ethyl-1H-imidazo[4,5-c]quinolin-1-yl)methyl]cyclobutanecarboxamide]	227 to 230
CCOCc1nc2c(N)nc3ccccc3c2n1CC1(C(N)=O)CCCCC1 [Example 67, 1-{[4-Amino-2-(ethoxymethyl)-1H-imidazo[4,5-c]quinolin-1-yl]methyl}cyclohexanecarboxamide]	221 to 223
CC(C)(Cn1c(CO)nc2c(N)nc3ccccc3c21)C(N)=O [Example 68, 3-[4-Amino-2-(hydroxymethyl)-1H-imidazo[4,5-c]quinolin-1-yl)-2,2-dimethylpropanamide]	201 to 203

Second part, the molecule after the results:

melting point [°C]	Structure (SMILES)
156 to 158	CCOCc1nc2c(N)nc(C)c(C)c2n1CCCC(=O)N1CCOCC1 [Example 45, 2-(Ethoxymethyl)-6,7-dimethyl-1-(4-morpholin-4-yl-4-oxobutyl)-1H-imidazo[4,5-c]pyridin-4-amine]
141 to 143	CCCCc1nc2c(N)nc3ccccc3c2n1CCCCC(=O)N1CCOCC1 [Example 46, 2-Butyl-1-(5-morpholin-4-yl-5-oxopentyl)-1H-imidazo[4,5-c]quinolin-4-amine]
218 to 219	Cc1nc2c(N)nc3ccccc3c2n1CCCCC(=O)N1CCOCC1 [Example 47, 2-Methyl-1-(5-morpholin-4-yl-5-oxopentyl)-1H-imidazo[4,5-c]quinolin-4-amine]
128 to 129	CCOCc1nc2c(N)nc3ccccc3c2n1CCCCC(=O)N1CCOCC1 [Example 48, 2-(Ethoxymethyl)-1-(5-morpholin-4-yl-5-oxopentyl)-1H-imidazo[4,5-c]quinolin-4-amine]
158 to 160	CCCc1nc2c(N)nc3c(c2n1CCCCC(=O)N1CCOCC1)CCCC3 [Example 50, 1-(5-Morpholin-4-yl-5-oxopentyl)-2-propyl-6,7,8,9-tetrahydro-1H-imidazo[4,5-c]quinolin-4-amine]
148 to 150	CCCc1nc2c(N)nc3cccnc3c2n1CCCCCC(=O)N1CCOCC1 [Example 53, 1-(6-Morpholin-4-yl-6-oxohexyl)-2-propyl-1H-imidazo[4,5-c][1,5]naphthyridin-4-amine]
163 to 165	CCc1nc2c(N)nc3cccnc3c2n1CCCCCC(=O)N1CCOCC1 [Example 55, 2-Ethyl-1-(6-morpholin-4-yl-6-oxohexyl)-1H-imidazo[4,5-c][1,5]naphthyridin-4-amine]
168 to 170	CCOCc1nc2c(N)nc3cccnc3c2n1CCCCCC(=O)N1CCOCC1 [Example 57, 2-(Ethoxymethyl)-1-(6-morpholin-4-yl-6-oxohexyl)-1H-imidazo[4,5-c][1,5]naphthyridin-4-amine]

Reference: US8697873B2, “Amide substituted imidazopyridines, imidazoquinolines, and imidazonaphthyridines” (3M Innovative Properties Company, priority 2004, dated 2014)
